Assay results as given in patent US3954780A, “Propionic acid derivatives” (Innothera, priority 1970, dated 1976).
≈ marks a conversion by molar mass, not a printed value. Where “and” joins values, the source holds several entries; their conditions need not be identical. Equal values may be shown once. Where a name gives a salt, the structure may show the parent alone. Read-outs that look alike come from different tables or passages of the source.

What was measured:
[1] = Acute toxicity in the mouse (DL50, method of Miller and Tainter); conditions: in vivo, read-out: DL 50 (the source's name)
Source text: The acute toxicity of the amine ester derivatives of β-[ benzo(b)thienyl-3]propionic acid have been studied in the mouse by intraperitoneal and oral routes, the products being administered in an isotonic solution of sodium chloride, 0.9%, or in suspension in a dilute aqueous solution of carboxymethyl cellulose.
The calculation of the DL50 has been effected according to the method of MILLER and TAINTER (MILLER. L.C., TAINTER M.L. - Proc. Soc. Exptl. Biol. Med. 1944-57-261,264).

isolated rat duodenum = assay: Spasmolytic activity of papaverinic type, barium chloride contracture; conditions: Tyrode 38°; for EC50: read-out: Spasmolytic activity Papaverinic type DE 50 (converted)
Method: a. To show activity of the papaverinic type, the contracturant used is barium chloride acting on the isolated rat duodenum.
The average activity of the substances studied has been effected by determining graphically their DE 30 and DE 50 these being expressed in μg for 20 ml of bath.

[2] = test system: isolated ileum of the guinea-pig; assay: Spasmolytic activity of atropinic type, acetylcholine chloride contracture; conditions: Tyrode 33°; for EC50: Cavia porcellus, read-out: Spasmolytic activity Atropinic type DE 50 (converted)
Source text: b. To show activity of atropinic type the contracturant used is acetylcholine chloride acting on the isolated ileum of the guinea-pig. […]

skin reflex = assay: Local anaesthetic activity, conduction anaesthesia (method of Moukhtar); format: in vivo
Source text: The method of MOUKHTAR has been chosen to show the activity of the derivatives studied on conduction anaesthesia (A. MOUKHTAR, C.R. Soc. Biol. 1909-66-187,189).
The reference local anaesthetic substance used in the tests has in each case been procaine hydrochloride in 0.5% solution in an 0.9% isotonic solution of NaCl. The three concentrations used to study the local anaesthetic activity of the new derivatives are 0.50, 0.25 and 0.10%, the vehicle being the isotonic 0.9% solution of NaCl.
The average anaesthetic activity of the substances chosen is expressed comparatively to that of the reference product chosen, by calculating the ratio of the average number n of the stimulations necessary to obtain the appearance of the skin reflex in the case of the derivatives studied, to the average number (n') of the stimulation determined for the reference substance.
The procaine hydrochloride and the derivatives studied are administered by the intradermal route at the rate of 0.20 ml per injection.

[3] = test system: acute oedema provoked by serotonine in the rat; assay: Anti-serotonic activity, serotonine-induced acute paw oedema; format: in vivo; conditions: 30 minutes before serotonine
Method: This has been researched in the rat by the technique of the acute oedema localised in the metatarsal region, provoked by the injection of 0.05 ml of a 0.01% solution of serotonine (sulphate of 5-hydroxy-tryptamine-creatinine) in an isotonic solution of sodium chloride.
The plethysmometric measurements of the paw having been subjected to the injection have been effected before, and at different times after, the injection of the serotonine.
The derivatives to be studied have been administered by the oral route 30 minutes before the serotonine.

[4] = 0.10 g/100 ml, intradermal 0.20 ml
[5] = 0.25 g/100 ml, intradermal 0.20 ml
[6] = 0.50 g/100 ml, intradermal 0.20 ml
[7] = derivative 0.10 g/100 ml vs procaine hydrochloride 0.50 g/100 ml
[8] = derivative 0.25 g/100 ml vs procaine hydrochloride 0.50 g/100 ml
[9] = derivative 0.50 g/100 ml vs procaine hydrochloride 0.50 g/100 ml

C=CCC(Cc1csc2ccccc12)C(=O)OCCN1CCCCCC1 (centres unmarked) [Compound 5]
LD50 ([1]; ip): 150 ± 17 mg/kg
Spasmolytic activity Papaverinic type DE 30 (isolated rat duodenum): 13.0 μg for 20 ml of bath
EC50 (isolated rat duodenum): 1 µg/mL (≈ 2.69 µM)
EC50 [2]: 9 µg/mL (≈ 24.2 µM)
Spasmolytic activity Atropinic type DE 30 [2]: 95 μg/20 ml of bath

C=CCC(Cc1csc2ccccc12)C(=O)OCCCN(C)C (centres unmarked) [Compound 6]
LD50 ([1]; ip): ~120 mg/kg
Spasmolytic activity Papaverinic type DE 30 (isolated rat duodenum): 9.0 μg for 20 ml of bath
EC50 (isolated rat duodenum): 1 µg/mL (≈ 3.02 µM)

C=CCC(Cc1csc2ccccc12)C(=O)OCCCN(CC)CC (stereo not drawn) [Compound 7, citrate of the N,N-diethylamino propyl esters of x-allyl-β-[benzo(b)thienyl-3]propionic acid]
LD50 ([1]; ip): 210 ± 10 mg/kg
LD50 ([1]; v.o. (oral) route): 1290 ± 80 mg/kg
average number of stimulations for the derivative studied n (skin reflex; [4]): 12.2
average number of stimulations for the derivative studied n (skin reflex; [5]): 18.9
average number of stimulations for the derivative studied n (skin reflex; [6]): 29.5
local anaesthetic activity n/n' (skin reflex; [7]): 0.3
local anaesthetic activity n/n' (skin reflex; [8]): 0.6
local anaesthetic activity n/n' (skin reflex; [9]): 1.0
average percentage reduction in oedema after 1 hour ([3]; 50 mg/kg oral): 27.6%
average percentage reduction in oedema after 2 hours ([3]; 50 mg/kg oral): 36.6%
Spasmolytic activity Papaverinic type DE 30 (isolated rat duodenum): 2.2 μg for 20 ml of bath
EC50 (isolated rat duodenum): 0.225 µg/mL
EC50 [2]: 16.2 µg/mL
Spasmolytic activity Atropinic type DE 30 [2]: 170 μg/20 ml of bath

C=CCC(Cc1csc2ccccc12)C(=O)OC(C)CN1CCCC1 (centres unmarked) [Compound 11]
LD50 ([1]; ip): 270 ± 59 mg/kg
Spasmolytic activity Papaverinic type DE 30 (isolated rat duodenum): 4.0 μg for 20 ml of bath
EC50 (isolated rat duodenum): 0.6 µg/mL (≈ 1.68 µM)

O=C(OCCN1CCCC1)C(Cc1cccs1)Cc1csc2ccccc12 (centres unmarked) [Compound 37]
LD50 ([1]; ip): 320 ± 21 mg/kg
Spasmolytic activity Papaverinic type DE 30 (isolated rat duodenum): 6.8 μg for 20 ml of bath
EC50 (isolated rat duodenum): 0.65 µg/mL (≈ 1.63 µM)
EC50 [2]: 4 µg/mL (≈ 10 µM)
Spasmolytic activity Atropinic type DE 30 [2]: 50 μg/20 ml of bath

CCN(CC)CCCOC(=O)C(Cc1cccs1)Cc1csc2ccccc12 (centres unmarked) [Compound 42]
LD50 ([1]; ip): 240 ± 18 mg/kg
Spasmolytic activity Papaverinic type DE 30 (isolated rat duodenum): 3.5 μg for 20 ml of bath
EC50 (isolated rat duodenum): 0.85 µg/mL (≈ 2.05 µM)
EC50 [2]: 15 µg/mL (≈ 36.1 µM)
Spasmolytic activity Atropinic type DE 30 [2]: 190 μg/20 ml of bath

O=C(OCCCN1CCCC1)C(Cc1cccs1)Cc1csc2ccccc12 (centres unmarked) [Compound 43]
LD50 ([1]; ip): 160 ± 11 mg/kg
Spasmolytic activity Papaverinic type DE 30 (isolated rat duodenum): 7.0 μg for 20 ml of bath
EC50 (isolated rat duodenum): 1.25 µg/mL (≈ 3.02 µM)

CCN(CC)CCOC(=O)C(Cc1csc2ccccc12)CC1CCCO1 (centres unmarked) [Compound 48]
Spasmolytic activity Papaverinic type DE 30 (isolated rat duodenum): 6.0 μg for 20 ml of bath
EC50 (isolated rat duodenum): 1.25 µg/mL (≈ 3.21 µM)
EC50 [2]: 0.9 µg/mL (≈ 2.31 µM)
Spasmolytic activity Atropinic type DE 30 [2]: 10 μg/20 ml of bath

O=C(OCCN1CCCC1)C(Cc1csc2ccccc12)CC1CCCO1 (centres unmarked) [Compound 49]
LD50 ([1]; ip): 140 ± 9 mg/kg
LD50 ([1]; v.o. (oral) route): ~650 mg/kg
average percentage reduction in oedema after 1 hour ([3]; 30 mg/kg oral): 17.8%
average percentage reduction in oedema after 2 hours ([3]; 30 mg/kg oral): 12.6%
Spasmolytic activity Papaverinic type DE 30 (isolated rat duodenum): 1.6 μg for 20 ml of bath
EC50 (isolated rat duodenum): 0.185 µg/mL (≈ 0.477 µM)
EC50 [2]: 1.4 µg/mL (≈ 3.61 µM)
Spasmolytic activity Atropinic type DE 30 [2]: 21 μg/20 ml of bath

O=C(OCCN1CCCCC1)C(Cc1csc2ccccc12)CC1CCCO1 (centres unmarked) [Compound 50]
LD50 ([1]; ip): 122 ± 12 mg/kg
Spasmolytic activity Papaverinic type DE 30 (isolated rat duodenum): 5.0 μg for 20 ml of bath
EC50 (isolated rat duodenum): 0.6 µg/mL (≈ 1.49 µM)
EC50 [2]: 3.5 µg/mL (≈ 8.72 µM)
Spasmolytic activity Atropinic type DE 30 [2]: 48 μg/20 ml of bath

O=C(OCCN1CCCCCC1)C(Cc1csc2ccccc12)CC1CCCO1 (centres unmarked) [Compound 51]
LD50 ([1]; ip): 121 ± 10 mg/kg
Spasmolytic activity Papaverinic type DE 30 (isolated rat duodenum): 3.5 μg for 20 ml of bath
EC50 (isolated rat duodenum): 0.325 µg/mL (≈ 0.782 µM)
EC50 [2]: 4.75 µg/mL (≈ 11.4 µM)
Spasmolytic activity Atropinic type DE 30 [2]: 61 μg/20 ml of bath

CCN(CC)CCCOC(=O)C(Cc1csc2ccccc12)CC1CCCO1 (centres unmarked) [Compound 53]
LD50 ([1]; ip): 145 ± 9 mg/kg
LD50 ([1]; v.o. (oral) route): 1150 ± 78 mg/kg
average number of stimulations for the derivative studied n (skin reflex; [4]): 14.2
average number of stimulations for the derivative studied n (skin reflex; [5]): 29.1
average number of stimulations for the derivative studied n (skin reflex; [6]): 33.2
local anaesthetic activity n/n' (skin reflex; [7]): 0.5
local anaesthetic activity n/n' (skin reflex; [8]): 1.0
local anaesthetic activity n/n' (skin reflex; [9]): 1.2
average percentage reduction in oedema after 1 hour ([3]; 30 mg/kg oral): 19.4%
average percentage reduction in oedema after 2 hours ([3]; 30 mg/kg oral): 15.1%
average percentage reduction in oedema after 1 hour ([3]; 50 mg/kg oral): 40.6%
average percentage reduction in oedema after 2 hours ([3]; 50 mg/kg oral): 42.9%
Spasmolytic activity Papaverinic type DE 30 (isolated rat duodenum): 4.5 μg for 20 ml of bath
EC50 (isolated rat duodenum): 0.4 µg/mL (≈ 0.991 µM)
EC50 [2]: 7 µg/mL (≈ 17.3 µM)
Spasmolytic activity Atropinic type DE 30 [2]: 75 μg/20 ml of bath

O=C(OCCCN1CCCC1)C(Cc1csc2ccccc12)CC1CCCO1 (centres unmarked) [Compound 54]
LD50 ([1]; ip): 100 ± 12 mg/kg
LD50 ([1]; v.o. (oral) route): 400 ± 27 mg/kg
average number of stimulations for the derivative studied n (skin reflex; [4]): 16.7
average number of stimulations for the derivative studied n (skin reflex; [5]): 25.7
average number of stimulations for the derivative studied n (skin reflex; [6]): 31.4
local anaesthetic activity n/n' (skin reflex; [7]): 0.6
local anaesthetic activity n/n' (skin reflex; [8]): 0.8
local anaesthetic activity n/n' (skin reflex; [9]): 1.1
average percentage reduction in oedema after 1 hour ([3]; 30 mg/kg oral): 22.4%
average percentage reduction in oedema after 2 hours ([3]; 30 mg/kg oral): 16.0%
average percentage reduction in oedema after 1 hour ([3]; 50 mg/kg oral): 34.9%
average percentage reduction in oedema after 2 hours ([3]; 50 mg/kg oral): 45.0%
Spasmolytic activity Papaverinic type DE 30 (isolated rat duodenum): 9.5 μg for 20 ml of bath
EC50 (isolated rat duodenum): 0.6 µg/mL (≈ 1.49 µM)
EC50 [2]: 4.5 µg/mL (≈ 11.2 µM)
Spasmolytic activity Atropinic type DE 30 [2]: 52 μg/20 ml of bath

O=C(OCCCN1CCCCC1)C(Cc1csc2ccccc12)CC1CCCO1 (centres unmarked) [Compound 55]
LD50 ([1]; ip): 85 ± 12 mg/kg
LD50 ([1]; v.o. (oral) route): ~450 mg/kg
average percentage reduction in oedema after 1 hour ([3]; 30 mg/kg oral): 12.3%
average percentage reduction in oedema after 2 hours ([3]; 30 mg/kg oral): 11.3%
average percentage reduction in oedema after 1 hour ([3]; 50 mg/kg oral): 40.7%
average percentage reduction in oedema after 2 hours ([3]; 50 mg/kg oral): 39.8%
Spasmolytic activity Papaverinic type DE 30 (isolated rat duodenum): 3.5 μg for 20 ml of bath
EC50 (isolated rat duodenum): 0.375 µg/mL (≈ 0.902 µM)

CCN(CC)CCOC(=O)c1ccc(N)cc1 [procaine hydrochloride, reference compound]
average number of stimulations for procaine hydrochloride n' (skin reflex; procaine hydrochloride 0.50 g/100 ml, intradermal 0.20 ml, hydrochloride): 30.5 and 33.9 and 36.0 and 27.2 and 29.5 and 29.2 and 33.7 and 28.2
